Each structure is given as a SMILES string. A value given as a limit tells only on which side of the number the result lay.

The subject of series [1] is influenza virus A/Taiwan/1/86 (H1N1). Briefly: organism not typed. Format: cell-based. The note with it: 72 h; CPE in infected MDCK cells, ATP levels (ATPlite), three days post-virus exposure. Background: ATP-based viability assays read luminescence as a measure of living cells.
A further series in a line: in vitro. The note with it: dog.

As for `Cc1nccc(N[C@H]2CCC[C@@H](Nc3nc(-c4c[nH]c5c(F)cc(F)cc45)ncc3F)C2)n1` [Compound 10], the concentration for half-maximal inhibition (IC50) (in general, the concentration needed to halve the response being measured) in series [1] was found to be 0.02 µM. The CC50 at 3 days in “in vitro” stood at 2.88 µM.
In the same order, the values of `Cc1cc(N[C@@H]2CCC[C@H](Nc3nc(-c4c[nH]c5c(F)cc(F)cc45)ncc3F)C2)ncn1` [Compound 11] are 0.008 µM and 5.97 µM.
The like results for `Nc1ncc(F)c(N[C@@H]2CCC[C@H](Nc3nc(-c4c[nH]c5c(F)cc(F)cc45)ncc3F)C2)n1` [Compound 12] were, in that order, 0.006 µM and greater than 1 µM.
The like results for `Nc1nc(N[C@H]2CCC[C@@H](Nc3nc(-c4c[nH]c5c(F)cc(F)cc45)ncc3F)C2)c2ccccc2n1` [Compound 13] were, in that order, 0.02 µM and 11.6 µM.
`N#Cc1nccc(N[C@@H]2CCC[C@H](Nc3nc(-c4c[nH]c5c(F)cc(F)cc45)ncc3F)C2)n1` [Compound 14]: the melting point (as a rule, the temperature, or range, at which the solid turns liquid) stood at 215.6 °C. The compound also returned an IC50 in series [1] of 0.008 µM. Moreover, the CC50 at 3 days in “in vitro” is 3.15 µM.
The like results for `COc1nccc(N[C@@H]2CCC[C@H](Nc3nc(-c4c[nH]c5c(F)cc(F)cc45)ncc3F)C2)n1` [Compound 15] were, in that order, 139.6 °C, 0.075 µM and 3.19 µM.
For the compound `Fc1cc(F)c2[nH]cc(-c3ncc(F)c(N[C@H]4CCC[C@@H](Nc5ccnc(Cl)n5)C4)n3)c2c1` [Compound 16], the IC50 in series [1] is 0.008 µM. In “in vitro”, this compound yielded a CC50 at 3 days of 2.17 µM.
As for `Fc1cc(F)c2[nH]cc(-c3ncc(F)c(N[C@H]4CCC[C@@H](Nc5ccncn5)C4)n3)c2c1` [Compound 18], the melting point was 166.5 °C. Further, in series [1], half-maximal inhibition (IC50) was put at 0.008 µM. Further, the CC50 at 3 days in “in vitro” was determined as 8.34 µM.
Take `Fc1cc(F)c2[nH]cc(-c3ncc(F)c(N[C@H]4CCC[C@@H](Nc5ncncc5F)C4)n3)c2c1` [Compound 19]: the melting point was found to be 215.6 °C. The IC50 in series [1] came out at 0.14 µM. The compound further gave a CC50 at 3 days in “in vitro” greater than 25 µM.
`Cc1nc(-c2c[nH]c3c(F)cc(F)cc23)nc(N[C@@H]2CCC[C@H](Nc3cc(C(F)(F)F)nc(Cl)n3)C2)c1F` [Compound 35] displayed an IC50 in series [1] of 0.03 µM. In “in vitro”, the CC50 at 3 days worked out at 0.89 µM.
The like results for `Cc1nc(Cl)nc(N[C@@H]2CCC[C@H](Nc3nc(-c4c[nH]c5c(F)cc(F)cc45)nc(C)c3F)C2)c1F` [Compound 36] were, in that order, 0.002 µM and greater than 25 µM.
Compound `Cc1nc(-c2c[nH]c3c(F)cc(F)cc23)nc(N[C@H]2CCC[C@@H](Nc3nc(Cl)nc4c3CCCC4)C2)c1F` [Compound 37] showed an IC50 in series [1] of 0.011 µM. The CC50 at 3 days in “in vitro” was greater than 25 µM.
In turn, `Cc1nc(-c2c[nH]c3c(F)cc(F)cc23)nc(N[C@H]2CCC[C@@H](Nc3nc(Cl)nc4c3CCC4)C2)c1F` [Compound 38] yielded an IC50 in series [1] of 0.001 µM. Also, the CC50 at 3 days in “in vitro” was greater than 25 µM.
The like results for `Cc1nc(-c2c[nH]c3c(F)cc(F)cc23)nc(N[C@H]2CCC[C@@H](Nc3nc(Cl)nc4sccc34)C2)c1F` [Compound 39] were, in that order, 0.003 µM and greater than 25 µM.
The compound `Cc1nc(-c2c[nH]c3c(F)cc(F)cc23)nc(N[C@H]2CCC[C@@H](Nc3cncc(Cl)n3)C2)c1F` [Compound 40] displayed a melting point of 201.8 °C. The compound further came in with an IC50 in series [1] of 0.024 µM. This compound returned a CC50 at 3 days in the series “in vitro” greater than 25 µM.
With `Cc1nc(-c2c[nH]c3c(F)cc(F)cc23)nc(N[C@H]2CCC[C@@H](Nc3ncc(C4CC4)c(Cl)n3)C2)c1F` [Compound 41], the melting point came to 222.7 °C. Further, half-maximal inhibition in series [1] (IC50) required 0.039 µM. In addition, the CC50 at 3 days in “in vitro” was greater than 25 µM.
`Cc1nc(-c2c[nH]c3c(F)cc(F)cc23)nc(N[C@H]2CCC[C@@H](Nc3nc(Cl)ncc3C3CC3)C2)c1F` [Compound 42]: 0.041 µM corresponded to half-maximal inhibition in series [1] (IC50). Besides, the CC50 at 3 days in the series “in vitro” is greater than 25 µM.
In the same order, the values of `Cc1nc(-c2c[nH]c3c(F)cc(F)cc23)nc(N[C@H]2CCC[C@@H](Nc3nc(O)ncc3C#N)C2)c1F` [Compound 43] are 0.0006 µM and greater than 25 µM.
Turning to `Cc1cnc(Cl)nc1N[C@@H]1CCC[C@H](Nc2nc(-c3c[nH]c4c(F)cc(F)cc34)nc(C)c2F)C1` [Compound 44], the melting point was 185.4 °C. The compound also came in with an IC50 in series [1] of 0.01 µM. This compound yielded a CC50 at 3 days in “in vitro” greater than 25 µM.
The compound `COc1cnc(Cl)nc1N[C@@H]1CCC[C@H](Nc2nc(-c3c[nH]c4c(F)cc(F)cc34)nc(C)c2F)C1` [Compound 45] yielded a melting point of 246.6 °C. Besides, in series [1], the half-inhibitory concentration (IC50) worked out at 0.036 µM. Besides, the CC50 at 3 days in the series “in vitro” is greater than 25 µM.
In series [1], `Cc1cc(N[C@@H]2CCC[C@H](Nc3nc(-c4c[nH]c5c(F)cc(F)cc45)nc(C)c3F)C2)ncn1` [Compound 46] returned a half-inhibitory concentration (IC50) of 0.002 µM. Moreover, in the series “in vitro”, the CC50 at 3 days is greater than 25 µM.
In the same order, the values of `Cc1nc(-c2c[nH]c3c(F)cc(F)cc23)nc(N[C@H]2CCC[C@@H](Nc3ncnc4nc[nH]c34)C2)c1F` [Compound 47] are 0.0007 µM and 11 µM.
In the same order, the values of `Cc1cc(N[C@@H]2CCC[C@H](Nc3nc(-c4c[nH]c5c(F)cc(F)cc45)nc(C(=O)O)c3F)C2)nc(Cl)n1` [Compound 54] are 0.061 µM and greater than 25 µM.
As for `Cc1cc(N[C@@H]2CCC[C@H](Nc3nc(-c4c[nH]c5ncncc45)nc(C)c3F)C2)ncn1` [Compound 64], the 50% inhibitory concentration (IC50) in series [1] was 0.008 µM. The compound also gave a CC50 at 3 days in the series “in vitro” greater than 25 µM.
Consider `Cc1ccnc(N[C@@H]2CCC[C@H](Nc3nc(-c4c[nH]c5ncncc45)nc(C)c3F)C2)n1` [Compound 65], for which, in series [1], half-maximal inhibition (IC50) required 0.007 µM. This compound also yielded a CC50 at 3 days in “in vitro” greater than 25 µM.
In the same order, the values of `Cc1cc(O[C@@H]2CCC[C@H](Nc3nc(-c4c[nH]c5c(F)cc(F)cc45)nc(C)c3F)C2)ncn1` [Compound 71] are 0.013 µM and 2.2 µM.

Source of the values: US11117887B2, “Aryl substituted pyrimidines for use in influenza virus infection” (Janssen Sciences Ireland Unlimited Company, priority 2016, dated 2021).
